Assay results from patent publication US20150133401A1, “COMBINATION THERAPY INVOLVING A VASCULAR DISRUPTING AGENT AND AN AGENT WHICH TARGETS HYPOXIA” (BIONOMICS LIMITED, priority 2012, published 2015).

Experiments:
[1] = test system: RENCA (VHL wildtype) orthotopic tumour; test: Tumour growth inhibition by weight of RENCA orthotopic tumour bearing kidneys; format: in vivo, Balb/c mice; conditions: kidneys weighed on Day 10 of treatment; Pazopanib 30 mg/kg p.o. daily, BNC105 16 mg/kg i.v. Days 2 and 9; FIG. 3
Description: FIG. 3 Right kidney weight (mg)±SEM of mice bearing RENCA kidney tumours treated with BNC105P, Pazopanib or BNC105P+Pazopanib.
RENCA (VHL wildtype) orthotopic tumour bearing kidneys from Balb/c mice were weighed on Day 10 day of treatment (Pazopanib 30 mg/kg, p.o. Daily, BNC105 16 mg/kg i.v. Days 2 and 9).

[2] = test system: tumour endothelial cells (activated) and normal endothelial cells (quiescent); test: Selectivity between activated (tumour) and quiescent (normal) endothelial cells; format: cell-based
Source text: An important aspect of the compounds of formulae I, Ia, Ib, II and III is the combination of the specific C-6 and C-7 substituents together with the C-2 Q-group (especially C-2 methyl) which appears to confer greater potency and selectivity when compared to other structurally related TPI compounds. In these compounds selectivity is not simply reliant on the predisposition of tumour vasculature towards collapse when challenged with the VDA but on a capacity of the VDA to distinguish between tumour endothelial cells and normal endothelial cells. Normal endothelial cells, found in healthy tissues, are in a “quiescent” state and tumour endothelial cells are in an “activated” state.

RENCA orthotopic tumour = test: TUNEL assay of necrosis in RENCA orthotopic tumour sections; format: in vivo, Balb/c mice; conditions: 4 hours after dosing BNC105 on Day 9; Bortezomib 0.5 mg/kg iv Days 1, 5, 8; BNC105 32 mg/kg iv Days 2 and 9
Description: RENCA orthotopic tumour bearing kidneys from Balb/c mice were photographed 4 hours after dosing BNC105 on Day 9 of treatment (Bortezomib 0.5 mg/kg iv Days 1, 5, 8, BNC105 32 mg/kg iv Days 2 and 9). Formalin fixed and paraffin embedded sections were stained using a TUNEL assay (Roche) to visualize cell necrosis.

Calu-6 lung carcinoma = test: Tumour hypoxia / disruption of tumour vasculature in Calu-6 tumours; format: in vivo
Colo205 colon carcinoma = test: Tumour hypoxia / disruption of tumour vasculature in Colo205 tumours; format: in vivo
[3] = test system: DU-145 prostate carcinoma; test: Tumour hypoxia / disruption of tumour vasculature in DU-145 tumours; format: in vivo
[4] = test system: MDA-MB-231 breast carcinoma; test: Tumour hypoxia / disruption of tumour vasculature in MDA-MB-231 tumours; format: in vivo
[5] = test system: RENCA (VHL wildtype) orthotopic tumour; test: Immunohistochemistry of unfolded protein response markers in RENCA orthotopic tumour sections; format: in vivo, Balb/c mice; conditions: 24 hours after a single dose i.v. 32 mg/kg
Source text: (Fast Red detection on hematoxylin)

RENCA renal tumours = test: Vascular shutdown and hypoxia response markers in RENCA renal tumours; format: in vivo
tumor mass = test: Histological changes caused by BNC105 anti-tumor action (tumor necrosis); format: in vivo; conditions: histology; peripheral regions remain viable
Source text: Based on investigations on the histological changes caused by BNC105 anti-tumor action, it was established that >95% of the tumor mass becomes necrotic, while peripheral regions remain viable. […] Among these is the angiogenesis growth factor VEGF. The present inventors sought to investigate the potential therapeutic benefit of combining BNC105 with an inhibitor of the VEGF/VEGFR2 signalling pathway.

In the case of `Cc1ccc(Nc2nccc(N(C)c3ccc4c(C)n(C)nc4c3)n2)cc1S(N)(=O)=O` [Pazopanib, reference compound], the tumour growth inhibition [1] is reported as 19%.
In the case of `COc1ccc(/C=C\c2cc(OC)c(OC)c(OC)c2)cc1O` [Combretastatin A4 (CA4), Combretastatin A4, reference compound], the “potency against quiescent versus activated endothelial cells (selectivity)” value [2] is reported as “equally potent against quiescent and activated endothelial cells”.
`CC(C)C[C@H](NC(=O)[C@H](Cc1ccccc1)NC(=O)c1cnccn1)B(O)O` [Bortezomib, reference compound] was tested, and the “tumor necrosis (TUNEL staining)” value (RENCA orthotopic tumour) was “Very little tumor necrosis”.
In the case of `COc1cc(C(=O)c2c(C)oc3c(OP(=O)([O-])[O-])c(OC)ccc23)cc(OC)c1OC.[Na+].[Na+]` [BNC105P, Disodium 6-methoxy-2-methyl-3-(3,4,5-trimethoxybenzoyl)benzofuran-7-yl phosphate], the “tumour hypoxia by disruption of tumour vasculature” value (“tumour hypoxia by disruption” below) (Calu-6 lung carcinoma) is reported as “increase tumour hypoxia”, the “tumour hypoxia by disruption” value (Colo205 colon carcinoma) is reported as “increase tumour hypoxia” and the “tumour hypoxia by disruption” value [3] is reported as “increase tumour hypoxia”. For the same compound, the “tumour hypoxia by disruption” value ([4]; MDA-MB-231 breast carcinoma) was “increase tumour hypoxia”, the apoptotic cells ([4]; MDA-MB-231 tumours) was “increase in apoptotic cells” and the blood vessel integrity ([4]; MDA-MB-231 tumours) was “damage of blood vessel integrity”. The “release of angiogenic growth factor VEGF” value ([4]; MDA-MB-231 tumours) was “release of the angiogenic growth factor VEGF”, the tumour endothelial cells ([4]; MDA-MB-231 tumours) was “destruction of tumour endothelial cells” and the “unfolded protein response markers PERK and phosphorylation of eIF2α” value [5] was “upregulation of unfolded protein response markers”.
`COc1cc(C(=O)c2c(C)oc3c(O)c(OC)ccc23)cc(OC)c1OC` [BNC105, 2-Methyl-7-hydroxy-3-(3,4,5-trimethoxybenzoyl)-6-methoxybenzofuran] was tested, and the tumour growth inhibition [1] was 21%, the vascular shutdown (RENCA renal tumours) was “induced vascular shutdown” and the “CXCL12 and MMP-9 levels” value (RENCA renal tumours; induced hypoxia) was “increase in CXCL12 and MMP-9”. The “GLUT1, HIF-1a, PERK, eIF2a and VEGF levels” value (RENCA renal tumours; on vascular shutdown) was “increase GLUT1, HIF-1a, PERK, eIF2a and VEGF”, the “tumor necrosis (TUNEL staining)” value (RENCA orthotopic tumour) was “Very little tumor necrosis” and the “potency against quiescent versus activated endothelial cells (selectivity)” value [2] was “show selectivity towards tumor endothelial cells (activated) over normal endothelial cells (quiescent)”. The “tumor mass that becomes necrotic” value (tumor mass) was greater than 95%.
